Reference: patent publication US5292737A, “N,N'-bis(sulfonamido)-2-amino-4-iminonaphthalen-1-ones and N,N'-bis(amido)-2-amino-4-iminonaphthalen-1-ones” (Sphinx Pharmaceuticals Corporation, priority 1992, dated 1994)

Key:
[1] = tested on: MCF-7 human breast tumor cell line; experiment: Human Tumor Cell Growth Inhibition (3H-thymidine incorporation); type: cell-based
Protocol: MCF-7 a human breast tumor cell line was obtained from the National Cancer Institute, Frederick, Md. Tumor cells were trypsinized with 0.05% trypsin obtained from GIBCO (Grand Island Biological Co. Laboratories, Grand Island, N.Y.), counted with a hemacytometer and seeded at a concentration of 7,500 cells/well in a 96 well microtiter plate and allowed to attach to the surface overnight. To determine a concentration response, test agents were serially diluted an […] added at 2× final concentration to quadruplicate cultures to bring the total volume of each well to […]. The microtiter plate was then incubated at 37° C., 5% CO2 for 24 hrs with ^3 H-thymidine added at a concentration of 0.5 mCi/well in […] of 0.05% trypsin (GIBCO) was added to each well. Cells were checked microscopically to determine detachment from surfaces, and plates were harvested with a cell harvester (PHD, Cambridge Technology, Inc.). Filter paper corresponding to wells were placed in scintillation vials and counted to determine the amount ^3 H-thymidine incorporated by the cells. Counts per minute (CPM) of quadruplicate cultures were averaged and a percent of control calculated for each test agent concentration by the following formula: [formula]
The IC50 or concentration necessary to inhibit the proliferation of cells by 50% compared to control, of each test agent was determined by plotting % control vs log concentration for each dilution and then linear forecasting the 50% control value onto the X axis on a Quattro Pro computer program. Only regression values with a correlation coefficient greater then 0.9 were considered acceptable.

PKC isoenzyme βII = molecular target: T1, PKC isoenzyme βII (Homo sapiens, UniProt P05771); experiment: Protein kinase C inhibition assay, PKC isoenzyme βII; type: biochemical; settings: read-out: IC50 PKC βII
T1 construct: made in house; host or cells: baculovirus-insect cell expression system
T1 sequence (P05771 1-673 isoform P05771-2): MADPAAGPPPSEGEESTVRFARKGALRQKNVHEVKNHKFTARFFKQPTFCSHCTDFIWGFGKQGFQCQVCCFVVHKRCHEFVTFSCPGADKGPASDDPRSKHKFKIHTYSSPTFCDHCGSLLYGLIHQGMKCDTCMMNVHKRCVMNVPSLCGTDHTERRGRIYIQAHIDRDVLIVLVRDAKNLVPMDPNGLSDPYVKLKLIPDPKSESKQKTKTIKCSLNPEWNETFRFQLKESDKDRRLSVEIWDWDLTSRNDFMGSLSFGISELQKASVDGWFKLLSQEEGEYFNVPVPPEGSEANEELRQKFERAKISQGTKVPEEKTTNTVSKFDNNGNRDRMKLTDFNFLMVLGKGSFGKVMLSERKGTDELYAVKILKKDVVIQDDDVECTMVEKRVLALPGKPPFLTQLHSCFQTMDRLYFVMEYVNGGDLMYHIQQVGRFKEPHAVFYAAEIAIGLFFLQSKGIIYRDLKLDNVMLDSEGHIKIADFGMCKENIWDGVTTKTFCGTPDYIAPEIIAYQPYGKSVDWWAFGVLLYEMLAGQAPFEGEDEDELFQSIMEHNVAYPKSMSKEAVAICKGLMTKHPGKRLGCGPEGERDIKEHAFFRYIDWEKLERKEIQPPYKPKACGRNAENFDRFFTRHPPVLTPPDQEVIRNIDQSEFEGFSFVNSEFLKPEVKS
In short: (§1)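 Radiometric filter assay: enzyme from baculovirus-infected insect cells, H1 or Mbp acceptor, PS/DAG vesicles at suboptimal lipid levels, physiologic-like buffer. Test compound 1–150 μM (four levels, DMSO). 10 min reaction, 25% TCA + BSA stop, scintillation count; IC50 = 50% inhibition of control activity.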

PKC isoenzyme δ = molecular target: T2, PKC isoenzyme δ (Homo sapiens, UniProt Q05655); experiment: Protein kinase C inhibition assay, PKC isoenzyme δ; type: biochemical; settings: read-out: IC50 PKC δ
T2 construct: made in house; host or cells: baculovirus-insect cell expression system
T2 sequence (Q05655 whole entry): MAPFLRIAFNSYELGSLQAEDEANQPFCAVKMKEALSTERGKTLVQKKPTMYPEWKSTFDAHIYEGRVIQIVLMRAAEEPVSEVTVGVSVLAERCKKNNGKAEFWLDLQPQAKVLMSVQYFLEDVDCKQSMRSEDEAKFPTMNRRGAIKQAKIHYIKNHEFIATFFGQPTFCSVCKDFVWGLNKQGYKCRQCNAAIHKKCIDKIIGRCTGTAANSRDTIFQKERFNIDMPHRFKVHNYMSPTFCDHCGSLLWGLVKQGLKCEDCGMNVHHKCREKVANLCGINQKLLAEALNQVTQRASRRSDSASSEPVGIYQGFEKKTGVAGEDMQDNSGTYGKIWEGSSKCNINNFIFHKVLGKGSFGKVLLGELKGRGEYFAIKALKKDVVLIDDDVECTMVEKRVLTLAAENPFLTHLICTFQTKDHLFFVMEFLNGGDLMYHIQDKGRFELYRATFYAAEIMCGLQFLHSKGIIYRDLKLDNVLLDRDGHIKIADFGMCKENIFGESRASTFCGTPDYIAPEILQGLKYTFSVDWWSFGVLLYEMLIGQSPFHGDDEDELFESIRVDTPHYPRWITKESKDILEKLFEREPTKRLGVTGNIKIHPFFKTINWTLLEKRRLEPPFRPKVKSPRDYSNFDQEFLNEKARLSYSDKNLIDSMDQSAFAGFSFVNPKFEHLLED
In short: as §1

PKC isoenzyme ε = molecular target: T3, PKC isoenzyme ε (Homo sapiens, UniProt Q02156); experiment: Protein kinase C inhibition assay, PKC isoenzyme ε; type: biochemical; settings: read-out: IC50 PKC ε
T3 construct: made in house; host or cells: baculovirus-insect cell expression system
T3 sequence (Q02156 1-737): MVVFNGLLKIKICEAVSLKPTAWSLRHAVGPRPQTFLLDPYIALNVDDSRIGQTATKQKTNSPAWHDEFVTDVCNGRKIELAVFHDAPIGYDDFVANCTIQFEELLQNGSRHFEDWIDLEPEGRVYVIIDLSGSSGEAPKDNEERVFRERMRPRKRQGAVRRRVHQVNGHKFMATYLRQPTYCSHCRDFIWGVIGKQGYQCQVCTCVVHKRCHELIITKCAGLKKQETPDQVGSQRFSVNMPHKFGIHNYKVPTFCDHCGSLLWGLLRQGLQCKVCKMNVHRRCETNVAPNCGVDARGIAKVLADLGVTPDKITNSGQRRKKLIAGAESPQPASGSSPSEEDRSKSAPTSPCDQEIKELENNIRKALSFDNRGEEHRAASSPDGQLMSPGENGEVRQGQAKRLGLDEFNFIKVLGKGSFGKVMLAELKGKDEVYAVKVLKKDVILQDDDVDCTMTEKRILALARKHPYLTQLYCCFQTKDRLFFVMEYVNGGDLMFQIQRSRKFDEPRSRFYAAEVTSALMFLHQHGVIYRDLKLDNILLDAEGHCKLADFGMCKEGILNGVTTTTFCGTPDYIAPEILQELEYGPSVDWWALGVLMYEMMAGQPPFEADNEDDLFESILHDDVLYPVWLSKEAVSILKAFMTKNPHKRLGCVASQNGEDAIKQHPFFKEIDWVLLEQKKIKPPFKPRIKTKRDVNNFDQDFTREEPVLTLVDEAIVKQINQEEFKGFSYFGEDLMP
In short: as §1

[2] = tested on: normal human epidermal keratinocyte (NHEK) cells; experiment: Human Keratinocyte Inhibition (3H TdR Assay); type: cell-based; settings: 24 h incubation, 3H-thymidine
[3] = Homo sapiens, MCF7, MCF-7, 24 hrs

Row | Structure (SMILES) | IC50 [1, 3] [µM] | IC50 (PKC isoenzyme βII) [µM] | IC50 (PKC isoenzyme δ) [µM] | IC50 (PKC isoenzyme ε) [µM] | IC50 ([2]; Homo sapiens) [µM] | IC50 [2] [µM] | IC50 ([1]; MCF-7, 24 hrs) [µM]
1 | Cc1cc(NS(=O)(=O)c2ccc(N=C3C=C(Nc4ccc(S(=O)(=O)Nc5cc(C)nc(C)n5)cc4)C(=O)c4ccccc43)cc2)nc(C)n1 [Compound 3d] | 17.2 | 31 | 95 | > 150 | 2 |  | 
2 | Cc1ccnc(NS(=O)(=O)c2ccc(N=C3C=C(Nc4ccc(S(=O)(=O)Nc5nccc(C)n5)cc4)C(=O)c4ccccc43)cc2)n1 [Compound 3f] | 16.6 | 23 | 86 | > 150 | 1.2 |  | 
3 | COc1cc(NS(=O)(=O)c2ccc(N=C3C=C(Nc4ccc(S(=O)(=O)Nc5cc(OC)nc(OC)n5)cc4)C(=O)c4ccccc43)cc2)nc(OC)n1 [Compound 3g] | 16.5 | 25 | 40 | > 150 |  | 0.6 | 
4 | COc1cnc(NS(=O)(=O)c2ccc(N=C3C=C(Nc4ccc(S(=O)(=O)Nc5ncc(OC)cn5)cc4)C(=O)c4ccccc43)cc2)nc1 [Compound 3h] | 12.2 | 53 | 58 | > 150 | 0.9 |  | 
5 | O=C1C(Nc2ccc(S(=O)(=O)Nc3ccccn3)cc2)=CC(=Nc2ccc(S(=O)(=O)Nc3ccccn3)cc2)c2ccccc21 [Compound 3i] | 13.8 | 26 | 37 | > 150 |  | 0.61 | 
6 | COc1ccc(NS(=O)(=O)c2ccc(N=C3C=C(Nc4ccc(S(=O)(=O)Nc5ccc(OC)nn5)cc4)C(=O)c4ccccc43)cc2)nn1 [Compound 3j] | 16.1 | 45 | 17 | > 150 |  | 0.34 | 
7 | O=C1C(Nc2ccc(S(=O)(=O)Nc3cnc4ccccc4n3)cc2)=CC(=Nc2ccc(S(=O)(=O)Nc3cnc4ccccc4n3)cc2)c2ccccc21 [Compound 3m] | 17.9 | 22 | 122 | > 150 | 0.4 |  | 
8 | O=C1C(Nc2ccc(S(=O)(=O)NCc3ccccn3)cc2)=CC(=Nc2ccc(S(=O)(=O)NCc3ccccn3)cc2)c2ccccc21 [Compound 3n] | 1.02 | 141 | > 150 | > 150 |  | 1.1 | 
9 | Cc1cc(C)nc(NS(=O)(=O)c2cc(N=C3C=C(Nc4ccc(C)c(S(=O)(=O)Nc5cc(C)cc(C)n5)c4)C(=O)c4ccccc43)ccc2C)c1 [Compound 6ag] |  | 28 | 49 | 35 | 0.5 |  | 1.8
10 | Cc1cc(C)nc(NS(=O)(=O)c2ccc(N=C3C=C(Nc4ccc(S(=O)(=O)Nc5nc(C)cc(C)n5)cc4)C(=O)c4ccccc43)cc2)n1 [Compound 6c] |  | 14 | 10 | 15 |  | 0.04 | 15.5
11 | O=C1C(Nc2ccc(S(=O)(=O)Nc3cnc4ccccc4n3)cc2)=CC(=Nc2ccc(S(=O)(=O)Nc3cnc4ccccc4n3)cc2)c2ccccc21 [Compound 6m] |  | 23 | 37 | 141 |  | < 0.39 | 19
